Drawing on the supplement of paper PMC10307832, this text covers relative viability for five cell lines.

What all share (assay): relative viability (nuclei count vs DMSO), 5 days (fraction); higher = more cells survive
Compound in test [1]: C[C@]1(O)C[C@@H](c2nc(-c3ccc4ccc(-c5ccccc5)nc4c3)c3c(N)nccn32)C1 [Linsitinib] + CC(C)C[C@H](NC(=O)[C@H](Cc1ccccc1)NC(=O)c1cnccn1)B(O)O [Bortezomib] (partner 0.002 µM)
The procedure, abridged: (§1)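 Lung cancer cell lines in 1536-well plates got either a single drug or a fixed anchor-drug dose together with five library-drug doses (not always all listed) in √10 steps, by pin tool, on the day after seeding. Nuclei were counted after 5 days, and relative viability is the treated-to-vehicle ratio of nuclei counts. Values are medians of duplicate plates.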

Compound in test [2]: Cc1ccc(C(=O)N(CCCN)[C@@H](c2nc3cc(Cl)ccc3c(=O)n2Cc2ccccc2)C(C)C)cc1 [Ispinesib] + CC1(C)CCC(c2ccc(Cl)cc2)=C(CN2CCN(c3ccc(C(=O)NS(=O)(=O)c4ccc(N[C@H](CCN5CCOCC5)CSc5ccccc5)c(S(=O)(=O)C(F)(F)F)c4)cc3)CC2)C1 [Navitoclax] (partner 0.5 µM)
The procedure, abridged:
as §1

Compound in test [3]: Cc1ccc(C(=O)N(CCCN)[C@@H](c2nc3cc(Cl)ccc3c(=O)n2Cc2ccccc2)C(C)C)cc1 [Ispinesib] + CC(C)C[C@H](NC(=O)[C@H](Cc1ccccc1)NC(=O)c1cnccn1)B(O)O [Bortezomib] (partner 0.002 µM)
The procedure, abridged:
as §1

Compound in test [4]: Cc1ccc(C(=O)N(CCCN)[C@@H](c2nc3cc(Cl)ccc3c(=O)n2Cc2ccccc2)C(C)C)cc1 [Ispinesib] + C[C@]1(O)C[C@@H](c2nc(-c3ccc4ccc(-c5ccccc5)nc4c3)c3c(N)nccn32)C1 [Linsitinib] (partner 1 µM)
The procedure, abridged: as §1

EMC-BAC-2: the relative viability stood at 1.08 in test [1] (first compound 0.01 µM); 1.05 in test [1] (first compound 0.03162 µM); 1.01 in test [1] (first compound 0.1 µM); 0.628 in test [1] (first compound 0.3162 µM); 0.917 in test [1] (first compound 1 µM); 1.2 in test [2] (first compound 0.001 µM). The relative viability stood at 1.35 in test [2] (first compound 0.003162 µM); 1.28 in test [2] (first compound 0.01 µM); 1.08 in test [2] (first compound 0.03162 µM); 0.758 in test [2] (first compound 0.1 µM); 1.06 in test [3] (first compound 0.001 µM); 1.13 in test [3] (first compound 0.003162 µM). Moreover, the relative viability is 1.27 in test [3] (first compound 0.01 µM); 0.671 in test [3] (first compound 0.03162 µM); 0.214 in test [3] (first compound 0.1 µM); 0.831 in test [4] (first compound 0.001 µM); 0.847 in test [4] (first compound 0.003162 µM); 0.858 in test [4] (first compound 0.01 µM). For the same cell line, the figures for the relative viability in test [4] (first compound 0.03162 µM) and in test [4] (first compound 0.1 µM) were 0.614 and 0.487, respectively.

NCI-H1355: the relative viability in test [1] (first compound 0.01 µM) is 1.19; in test [1] (first compound 0.03162 µM), 1.25; in test [1] (first compound 0.1 µM), 1.18; in test [1] (first compound 0.3162 µM), 0.748; in test [1] (first compound 1 µM), 0.79; in test [2] (first compound 0.001 µM), 0.996. Moreover, the relative viability in test [2] (first compound 0.003162 µM) came to 0.878; in test [2] (first compound 0.01 µM), 0.927; in test [2] (first compound 0.03162 µM), 1.08; in test [2] (first compound 0.1 µM) it was 0.688; in test [3] (first compound 0.001 µM), 1.28; in test [3] (first compound 0.003162 µM) it was 1.23. Moreover, the relative viability in test [3] (first compound 0.01 µM) was 1.43; in test [3] (first compound 0.03162 µM) it was 0.815; in test [3] (first compound 0.1 µM) it was 0.293; in test [4] (first compound 0.001 µM), 0.82; in test [4] (first compound 0.003162 µM) it was 0.794; in test [4] (first compound 0.01 µM) it was 0.893. In addition, the results for the relative viability in test [4] (first compound 0.03162 µM) and in test [4] (first compound 0.1 µM) were 0.795 and 0.561, respectively.

NCI-H1792: the relative viability in test [1] (first compound 0.01 µM) came out at 0.971; in test [1] (first compound 0.03162 µM) it was 0.953; in test [1] (first compound 0.1 µM), 0.928; in test [1] (first compound 0.3162 µM) it was 0.775; in test [1] (first compound 1 µM), 0.704; in test [2] (first compound 0.001 µM), 0.827. Further, the relative viability in test [2] (first compound 0.003162 µM) came out at 0.825; in test [2] (first compound 0.01 µM), 0.594; in test [2] (first compound 0.03162 µM), 0.299; in test [2] (first compound 0.1 µM), 0.516; in test [3] (first compound 0.001 µM) it was 1.14; in test [3] (first compound 0.003162 µM) it was 1.02. The relative viability in test [3] (first compound 0.01 µM) turned out to be 1.09; in test [3] (first compound 0.03162 µM), 0.797; in test [3] (first compound 0.1 µM), 0.337; in test [4] (first compound 0.001 µM) it was 0.45; in test [4] (first compound 0.003162 µM), 0.52; in test [4] (first compound 0.01 µM) it was 0.492. Moreover, the relative viability is 0.25 in test [4] (first compound 0.03162 µM) and 0.392 in test [4] (first compound 0.1 µM).

In the case of HOP-62, the relative viability in test [1] (first compound 0.01 µM) was determined as 0.857; in test [1] (first compound 0.03162 µM) it was 0.488; in test [1] (first compound 0.1 µM), 1.03; in test [1] (first compound 1 µM), 0.379; in test [2] (first compound 0.001 µM), 1.19; in test [2] (first compound 0.003162 µM), 1.12. Further, the relative viability was 1.53 in test [2] (first compound 0.01 µM); 1.12 in test [2] (first compound 0.03162 µM); 0.171 in test [2] (first compound 0.1 µM); 0.46 in test [3] (first compound 0.001 µM); 0.974 in test [3] (first compound 0.003162 µM); 1.18 in test [3] (first compound 0.01 µM). The relative viability is 1.09 in test [3] (first compound 0.03162 µM); 0.32 in test [3] (first compound 0.1 µM); 0.99 in test [4] (first compound 0.001 µM); 1.14 in test [4] (first compound 0.003162 µM); 0.952 in test [4] (first compound 0.01 µM); 1.05 in test [4] (first compound 0.03162 µM). In test [4] (first compound 0.1 µM), the relative viability amounted to 0.742.

For the cell line NCI-H2009, the relative viability amounted to 1.01 in test [1] (first compound 0.01 µM); 0.926 in test [1] (first compound 0.03162 µM); 1.07 in test [1] (first compound 0.1 µM); 0.185 in test [1] (first compound 0.3162 µM); 0.898 in test [1] (first compound 1 µM); 1.28 in test [2] (first compound 0.001 µM). The relative viability in test [2] (first compound 0.003162 µM) is 1.23; in test [2] (first compound 0.01 µM), 1.32; in test [2] (first compound 0.03162 µM), 0.678; in test [2] (first compound 0.1 µM) it was 0.374; in test [3] (first compound 0.001 µM) it was 1; in test [3] (first compound 0.003162 µM), 0.986. In addition, the relative viability stood at 0.854 in test [3] (first compound 0.01 µM); 0.189 in test [3] (first compound 0.03162 µM); 0.261 in test [3] (first compound 0.1 µM); 1.28 in test [4] (first compound 0.001 µM); 1.18 in test [4] (first compound 0.003162 µM); 1.29 in test [4] (first compound 0.01 µM). For the same cell line, the relative viability was found to be 0.957 in test [4] (first compound 0.03162 µM) and 0.475 in test [4] (first compound 0.1 µM).
